Where a name gives a salt, the structure may show the parent alone.
Key:
[1] = tested on: BT474 (human breast carcinoma); assay: Methylene Blue Growth Inhibition Assay; assay type: cell-based; settings: BT-474, 72 h, BT474, 3 days incubation
Method: (§1) Tumor cell lines used in this assay were BT474 (human breast carcinoma) and LNCaP (lymph node metastasis of prostate cancer). HFF (normal human foreskin fibroblast) was also included. All cell lines were cultured in RPMI 1640 media (Invitrogen Corporation 22400-071) containing 10% Fetal Bovine Serum (FBS) at 37° C. in a humidified 5% CO2 incubator. Cells were harvested using trypsin/EDTA, counted using a hemacytometer and plated in 96-well tissue culture plates (Costar 35-3075), 100 uL per well, at the following densities: BT474 15,000 cells/well, LNCaP 5,000 cells/well and HFF 5,000 cells/well. 10 mM stocks of compounds in DMSO were serially diluted in DMSO through nine 3-fold dilutions in 96-well plates (Costar Corning 3363), and stored at −80 C. The next day, compound dilutions were thawed and 4 uL of each transferred to 662 uL RPMI 1640+100 ug/mL gentamicin, resulting in twice the final required test concentrations. 100 uL of compounds diluted in RPMI 1640 were added to all cell lines. The final concentration of DMSO in all wells, including controls, was 0.3%. Cells were incubated at 37 C, 5% CO2 for 3 days. Medium was removed by aspiration. Cell biomass was estimated by staining cells with 80 uL methylene blue (Sigma M9140, 0.5% in 50:50 ethanol:water), and incubating at room temperature for 1 hour. Stain was aspirated and the plates rinsed by immersion in water, then air-dried. Stain was released from cells by adding 100 uL of solubilizing solution (1% N-lauroyl sarcosine, sodium salt, Sigma L5125, in PBS) and incubating at room temperature for at least 30 minutes. Plates were shaken and the optical density at 620 nm was measured on a microplate reader. Percent inhibition of cell growth was calculated relative to vehicle-treated control wells. Concentration of compound that inhibits 50% of cell growth (IC50) was interpolated using non-linear regression (Levenberg-Marquadt) and the equation, y=Vmax*(1−(x̂n/K̂n+x̂n)))+Y2. [Ref: Mager, M. E. (1972) Data Analysis in Biochemistry and Biophysics. New York: Academic Press]

[2] = tested on: HFF (normal human foreskin fibroblast); assay: Methylene Blue Growth Inhibition Assay; assay type: cell-based; settings: 72 h, HFF normal cells, 3 days incubation
Method: as §1

[3] = tested on: LNCaP (lymph node metastasis of prostate cancer); assay: Methylene Blue Growth Inhibition Assay; assay type: cell-based; settings: Homo sapiens, 72 h, 3 days incubation
Method: as §1

[4] = Solubility in 50 mM phosphate buffer at pH 7.4; assay type: physicochemical; settings: suitability for IV dosage forms

Row | Structure (SMILES) | IC50 [1] [nM] | IC50 [2] [nM] | IC50 [3] [nM] | solubility (assessment in words) [4]
1 | CCn1c(-c2nonc2N)nc2c(C#CC(C)(C)O)ncc(OC[C@@H]3CNCCS3)c21 (single isomer, unassigned; enantiomer e1) [Example 3, 4-{2-(4-amino-1,2,5-oxadiazol-3-yl)-1-ethyl-7-[(2-thiomorpholinylmethyl)oxy]-1H-imidazo[4,5-c]pyridin-4-yl}-2-methyl-3-butyn-2-ol dihydrochloride (enantiomer E1)] | 6 | > 30000 | 4 | suitable for formulation into dosage forms for IV administration
2 | CCn1c(-c2nonc2N)nc2c(C#CC(C)(C)O)ncc(OC[C@@H]3CN(C)CCS3)c21 (single isomer, unassigned; enantiomer e1) [Example 7, 4-(2-(4-amino-1,2,5-oxadiazol-3-yl)-1-ethyl-7-{[(4-methyl-2-thiomorpholinyl)methyl]oxy}-1H-imidazo[4,5-c]pyridin-4-yl)-2-methyl-3-butyn-2-ol (enantiomer E1)] | 186 | > 30000 | 83 | –
3 | CCn1c(-c2nonc2N)nc2c(C#CC(C)(C)O)ncc(OCC3CNCC(C)O3)c21 (stereo in doubt) [Example 9, 4-[2-(4-amino-1,2,5-oxadiazol-3-yl)-1-ethyl-7-({[(2R)-6-methyl-2-morpholinyl]methyl}oxy)-1H-imidazo[4,5-c]pyridin-4-yl]-2-methyl-3-butyn-2-ol, dihydrochloride] | 80 | 9390 | 49 | suitable for formulation into dosage forms for IV administration
4 | CCn1c(-c2nonc2N)nc2c(C#CC(C)(C)O)ncc(OC[C@H]3CCCNC3)c21 [Example 1, 4-(2-(4-amino-1,2,5-oxadiazol-3-yl)-1-ethyl-7-{[(3S)-3-piperidinylmethyl]oxy}-1H-imidazo[4,5-c]pyridin-4-yl)-2-methyl-3-butyn-2-ol] | 484 | > 20000 | 16 | suitable for formulation into dosage forms for IV administration
5 | CCn1c(-c2nonc2N)nc2c(C#CC(C)(C)O)ncc(OC[C@H]3CNCCO3)c21 [Example 2, 4-(2-(4-amino-1,2,5-oxadiazol-3-yl)-1-ethyl-7-{[(2R)-2-morpholinylmethyl]oxy}-1H-imidazo[4,5-c]pyridin-4-yl)-2-methyl-3-butyn-2-ol dihydrochloric acid salt] | 1000 | > 30000 | 189 | –
6 | CCn1c(-c2nonc2N)nc2c(C#CC(C)(C)O)ncc(OC[C@@H]3CNCCO3)c21 [Example 4, 4-(2-(4-amino-1,2,5-oxadiazol-3-yl)-1-ethyl-7-{[(2S)-2-morpholinylmethyl]oxy}-1H-imidazo[4,5-c]pyridin-4-yl)-2-methyl-3-butyn-2-ol] | 37 | > 25000 | 15 | suitable for formulation into dosage forms for IV administration
7 | CCn1c(-c2nonc2N)nc2c(C#CC(C)(C)O)ncc(OCC3CCNC3)c21 (stereo not shown) [Example 5, 4-[2-(4-amino-1,25-oxadiazol-3-yl)-1-ethyl-7-[(3-Pyrrolidinylmethyl)oxy]-1H-imidazo[4,5-c]pyridin-4-yl]-2-methyl-3-butyn-2-ol, bis-trifluoroacetic acid salt] | 1030 | 20100 | 459 | –
8 | CCn1c(-c2nonc2N)nc2c(C#CC(C)(C)O)ncc(OC[C@H]3CCCN(C)C3)c21 [Example 6, 4-[2-(4-amino-1,2,5-oxadiazol-3-yl)-1-ethyl-7-({[(3S)-1-methyl-3-piperidinyl]methyl}oxy)-1H-imidazo[4,5-c]pyridin-4-yl]-2-methyl-3-butyn-2-ol, dihydrochloride] | 324 | 16800 | 53 | –
9 | CCn1c(-c2nonc2N)nc2c(C#CC(C)(C)O)ncc(OC[C@@H]3CN(C)CCO3)c21 [Example 8, 4-[2-(4-amino-1,2,5-oxadiazol-3-yl)-1-ethyl-7-({[(2S)-4-methyl-2-morpholinyl]methyl}oxy)-1H-imidazo[4,5-c]pyridin-4-yl]-2-methyl-3-butyn-2-ol] | 665 | > 30000 | 272 | –

Reference: patent US20100056523A1, “INHIBITORS OF AKT ACTIVITY” (SMITHKLINE BEECHAM CORPORATION, priority 2005, published 2010)
